Source: ChEMBL document CHEMBL1201862, “PubChem BioAssay data set” (2004)
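Values below derive from 48-hour exposures of cells grown in 96-well plates, with endpoints linearly interpolated between the two concentrations bracketing the appropriate inhibition level. GI50 is the concentration that inhibits growth by half.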 Activity calls are given as the source filed them. Rule as the data show it: active = GI50 up to about 1.1 µM and inactive = higher.

Columns and labels:
Assay in all cases: inhibition of tumour cell growth, NCI panel, 48 h
[1] = system: UACC-62
[2] = system: ACHN
[3] = system: SR
[4] = system: UACC-257
[5] = system: SN12C
[6] = system: OVCAR-5
[7] = system: NCI-H522
[8] = system: Malme-3M
[9] = system: U-251
[10] = system: NCI-H23
[11] = system: SW-620
[12] = system: SNB-19
[13] = system: HCT-15
[14] = system: EKVX
[15] = system: NCI-H460
[16] = system: HCC 2998
[17] = system: A498
[18] = system: T47D
[19] = system: MOLT-4
[20] = system: SK-MEL-2

Row | Compound | GI50 [1] | GI50 [2] | GI50 [3] | GI50 [4] | GI50 [5] | GI50 [6] | GI50 [7] | GI50 [8] | GI50 [9] | GI50 [10] | GI50 [11] | GI50 [12] | GI50 [13] | GI50 [14] | GI50 [15] | GI50 [16] | GI50 [17] | GI50 [18] | GI50 [19] | GI50 [20]
1 | Clc1cccc(-c2nc3cccc4c3n2Cc2ncccc2-4)c1 | 56.6 µM (inactive) | 8.2 µM (inactive) | 24 µM (inactive) | > 100 µM (inactive) | > 100 µM (inactive) | > 100 µM (inactive) | > 100 µM (inactive) | > 100 µM (inactive) | 30.3 µM (inactive) | > 100 µM (inactive) | > 100 µM (inactive) | 23.9 µM (inactive) | > 100 µM | > 100 µM (inactive) | 6.67 µM (inactive) | > 100 µM (inactive) | > 100 µM (inactive) | > 100 µM (inactive) |  | 
2 | COc1ccc(N2CCN(c3ccc4c(c3)NCC(=O)N4)CC2)cc1 | 25.3 µM (inactive) | 32.3 µM (inactive) | 9.75 µM (inactive) | 95.5 µM (inactive) | 70.6 µM (inactive) | 54.7 µM (inactive) | 14.6 µM (inactive) | 23.1 µM (inactive) | 25.6 µM (inactive) | 60.7 µM (inactive) | 61.5 µM (inactive) | 59.4 µM (inactive) | 49.5 µM | 39.2 µM (inactive) | > 100 µM (inactive) | > 100 µM (inactive) |  | 15.4 µM (inactive) | 60.7 µM (inactive) | 37.3 µM (inactive)
3 | CN(c1ccccc1Cl)S(=O)(=O)c1ccccc1[N+](=O)[O-] | 27.1 µM (inactive) | > 10 µM (inactive) | 35.5 µM (inactive) | 45.1 µM (inactive) | 95.7 µM (inactive) | 30.6 µM (inactive) | 32.7 µM (inactive) | 79.6 µM (inactive) | 40.6 µM (inactive) | 35.2 µM (inactive) | 78.9 µM (inactive) | 46.9 µM (inactive) | 48.9 µM | 39.2 µM (inactive) | 33.9 µM (inactive) | 34.7 µM (inactive) |  | 90.6 µM (inactive) | 25.7 µM (inactive) | 96.6 µM (inactive)
4 | Cc1c2c3ccccc3nc-2n(C)c2ccccc12 | 1.7 µM (inactive) | 0.611 µM (active) | 1.44 µM (inactive) | 2.11 µM (inactive) | 1.64 µM (inactive) | 2.61 µM (inactive) |  | 2.08 µM (inactive) | 2.54 µM (inactive) | 2.5 µM (inactive) | 1.11 µM (active) | 5.35 µM (inactive) | 0.548 µM | 2.43 µM (inactive) | 0.396 µM (active) | 2.64 µM (inactive) |  | 3.08 µM (inactive) | 0.339 µM (active) | 
5 | C[C@]12CCC(=O)C=C1CC[C@@H]1C2CC[C@]2(C)Nc3c(ncn3-c3ccc(F)cc3)CC12 (stereo not given in full) | 16.1 µM (inactive) | 20.8 µM (inactive) | 3.34 µM (inactive) | 17.8 µM (inactive) | 41.3 µM (inactive) | 40.7 µM (inactive) | 15 µM (inactive) | 18.9 µM (inactive) | 20.9 µM (inactive) | 23.1 µM (inactive) | 31.6 µM (inactive) | 49.2 µM (inactive) |  | 27.3 µM (inactive) | 21.7 µM (inactive) | 20.2 µM (inactive) | 22.3 µM (inactive) | 18.3 µM (inactive) | 23.3 µM (inactive) | 
6 | ClCc1c(-c2ccccc2)nn(-c2ccccc2)c1CCl | 7.18 µM (inactive) |  | 2.33 µM (inactive) | 15.3 µM (inactive) | 19.4 µM (inactive) | 19.4 µM (inactive) | 0.165 µM (active) | 16.4 µM (inactive) | 12.3 µM (inactive) | 15.6 µM (inactive) | 2.03 µM (inactive) | 18.6 µM (inactive) | 12.2 µM |  |  | 13.9 µM (inactive) |  | 2 µM (inactive) |  | 13.2 µM (inactive)
7 | CCOC(=O)C1c2[nH]c3ccccc3c2CCN1C(=O)c1ccco1 (stereo not given) | > 10 µM (inactive) | > 10 µM (inactive) | > 10 µM (inactive) | > 10 µM (inactive) | > 10 µM (inactive) |  |  | > 10 µM (inactive) | > 10 µM (inactive) |  | > 10 µM (inactive) | > 10 µM (inactive) | > 10 µM | > 10 µM (inactive) |  | > 10 µM (inactive) | 9.73 µM (inactive) | > 10 µM (inactive) | > 10 µM (inactive) | 
8 | Cc1c(C(=O)O)n2c(C)nnc2c2ccccc12 | > 100 µM (inactive) | > 100 µM (inactive) | > 100 µM (inactive) | > 100 µM (inactive) | > 100 µM (inactive) | > 100 µM (inactive) | > 100 µM (inactive) |  | > 100 µM (inactive) | > 100 µM (inactive) | > 100 µM (inactive) |  | > 100 µM | > 100 µM (inactive) | > 100 µM (inactive) | > 100 µM (inactive) | > 100 µM (inactive) | > 100 µM (inactive) | > 100 µM (inactive) | > 100 µM (inactive)
9 | Cn1c(-c2ccccc2)cc(-c2ccc3c(c2)OCO3)c1-c1ccsc1 | > 100 µM (inactive) | > 100 µM (inactive) | > 100 µM (inactive) | > 100 µM (inactive) | > 100 µM (inactive) | > 100 µM (inactive) |  |  | > 100 µM (inactive) | 52.8 µM (inactive) | > 100 µM (inactive) | > 100 µM (inactive) | > 100 µM | > 100 µM (inactive) | > 100 µM (inactive) | > 100 µM (inactive) | > 100 µM (inactive) | > 100 µM (inactive) | > 100 µM (inactive) | > 100 µM (inactive)
10 | C#CCOCC12C=CC(O1)C1COC(=O)C12 (stereo not given) | > 100 µM (inactive) | > 100 µM (inactive) | > 100 µM (inactive) | > 100 µM (inactive) | > 100 µM (inactive) | > 100 µM (inactive) | > 100 µM (inactive) | > 100 µM (inactive) | > 100 µM (inactive) | > 100 µM (inactive) | > 100 µM (inactive) | > 100 µM (inactive) | > 100 µM | > 100 µM (inactive) | > 100 µM (inactive) | > 100 µM (inactive) | > 100 µM (inactive) | > 100 µM (inactive) | > 100 µM (inactive) | 
11 | Cn1c(=O)c2nc[nH]c2n(C)c1=O [THEOPHYLLINE] |  | > 100 µM (inactive) | > 100 µM (inactive) | > 100 µM (inactive) | > 100 µM (inactive) | > 100 µM (inactive) | > 100 µM (inactive) | > 100 µM (inactive) |  | > 100 µM (inactive) | > 100 µM (inactive) |  | > 100 µM | > 100 µM (inactive) | > 100 µM (inactive) | > 100 µM (inactive) |  | > 100 µM (inactive) | > 100 µM (inactive) | > 100 µM (inactive)
12 | CCN1/C(=C/C#C/C(C)=C\c2sc3ccccc3[n+]2CC)Sc2ccccc21 | 2.55 µM (inactive) | 1.16 µM (inactive) | 0.811 µM (active) | 1.32 µM (inactive) | 4.35 µM (inactive) | 3.44 µM (inactive) | 0.377 µM (active) | 1.11 µM (active) | 0.948 µM (active) |  | 0.593 µM (active) | 1.91 µM (inactive) | 3.69 µM | 1.33 µM (inactive) | 2.53 µM (inactive) | 3.01 µM (inactive) |  | 5.13 µM (inactive) | 24.4 µM (inactive) | 2.44 µM (inactive)
